The results in this text go back to US6156700A, “3-(1,2-Benzisothiazol- and isoxazol-5-yl)-2,4(1H,3H)-pyrimidinedione or thione and 3-(1,2-benzisothiazol- and isoxazol-5-yl)-4(3H)-pyrimidinone or thione herbicidal agents” (American Cyanmid Company, priority 1998, dated 2000).

Conditions in all cases: 0.2500 kg/ha
Assay [1] concerns Velvetleaf, Abutilon theophrasti. Kind of assay: Preemergence herbicidal evaluation, ABUTH. Format: in vivo, Medic. An excerpt: (§1) Results of herbicide evaluation are expressed on a rating scale (0-9). The scale is based upon a visual observation of plant stand, vigor, malformation, size, chlorosis and overall plant appearance as compared with a control.
(§2) The preemergence herbicidal activity of the test compounds of the present invention is exemplified by the following tests in which the seeds of a variety of monocotyledonous and dicotyledonous plants are separately mixed with potting soil and planted on top of approximately one inch of soil in separate pint cups. After planting, the cups are sprayed with the selected aqueous acetone solution containing test compound in sufficient quantity to provide the equivalent of about 0.0156 to 0.500 kg per hectare of test compound per cup. The treated cups are then placed on greenhouse benches, watered and cared for in accordance with conventional greenhouse procedures. From four to five weeks after treatment, the tests are terminated and each cup is examined and rated according to the rating system provided in Example 185.
(§3) The compounds evaluated are reported by compound number given in Example 185.

Assay [2] has as its system Ragweed, Common, Ambrosia artemisifolia. The assay is described as follows: Preemergence herbicidal evaluation, AMBEL. Format: in vivo, L.
Text: as §1, §2, §3

Assay [3] has as its system Sicklepod, Cassia obtusifolia. Kind of assay: Preemergence herbicidal evaluation, CASOB. Type of assay: in vivo, L.
Text: as §1, §2, §3

The subject of assay [4] is Lambsquarters, Common, Chenopodium album. Kind of assay: Preemergence herbicidal evaluation, CHEAL. Type of assay: in vivo, L.
Text: as §1, §2, §3

For a further assay, the system named is Galium, Galium aparine. The assay is described as follows: Preemergence herbicidal evaluation, GALAP. Type of assay: in vivo.
Text: as §1, §2, §3

In assay [5] the test system is Morningglory, Ivyleaf, Ipomoea hederacea. Kind of assay: Preemergence herbicidal evaluation, IPOHE. Type of assay: in vivo, (L.) Jacq.
Text: as §1, §2, §3

For assay [6], the system named is Barnyardgrass, Echinochloa crus-galli. The assay is described as follows: Preemergence herbicidal evaluation, ECHCG. Type of assay: in vivo, (L.) Beau.
Text: as §1, §2, §3

In assay [7] the test system is Foxtail, Green, Setaria viridis. Kind of assay: Preemergence herbicidal evaluation, SETVI. Type of assay: in vivo, (L.) Beau.
Text: as §1, §2, §3

For assay [8], the system named is Soybean, Williams, Glycine max. Kind of assay: Preemergence herbicidal evaluation, GLXMAW. Type of assay: in vivo, (L.) Merr. cv Williams.
Text: as §1, §2, §3

Assay [9] concerns Rice, Tebonnet, Oryza sativa. The assay is described as follows: Preemergence herbicidal evaluation, ORYSAT. Format: in vivo, (L.) Tebonnet.
Text: as §1, §2, §3

For assay [10], the system named is Wheat, Winter, cv Riband, Triticum aestivum. The assay is described as follows: Preemergence herbicidal evaluation, TRZAWR. Type of assay: in vivo.
Text: as §1, §2, §3

The test system of another assay is Corn, Field, Zea mays. The assay is described as follows: Preemergence herbicidal evaluation, ZEAMX. Type of assay: in vivo, L.
Text: as §1, §2, §3

`COC(=O)COc1noc2ccc(-n3c(=O)cc(C(F)(F)F)n(C)c3=O)cc12` [Compound 22, Methyl {{5-[3,6-dihydro-3-methyl-2,6-dioxo-4-(trifluoromethyl)-1(2H)-pyrimidinyl]-1,2-benzisoxazol-3-yl}oxy}acetate]: the “herbicide rating (0-9)” value in [1] came out at 0.0; in [2], 0.0; in [3] it was 9.0; in [4] it was 0.0; in the assay on Galium, Galium aparine it was 4.0; in [5], 0.0. In addition, the “herbicide rating (0-9)” value was determined as 0.0 in assay [6]; 0.0 in [7]; 2.0 in assay [8]; 0.0 in assay [9]; 0.0 in assay [10]; 1.0 with Corn, Field, Zea mays.
